From patent publication US20230226005A1, “Methods of Treating, Ameliorating, Shortening Duration, and/or Reversing Symptoms and/or Complications of a Coronavirus Infection” (Yale University, priority 2020, published 2023)

How the values were obtained:
COVID-19 infection [1] = assay: Phase IIa study: nose-family symptom score; assay type: in vivo
COVID-19 infection [2] = assay: Phase IIa study: eye-family symptom score; assay type: in vivo

**Q.** How did the “nose-family symptom score, Fitzmaurice model, Camostat” value (COVID-19 infection [1]; day 0) turn out when `CN(C)C(=O)COC(=O)Cc1ccc(OC(=O)c2ccc(NC(=N)N)cc2)cc1` [camostat, 4-[[4-[(Aminoiminomethyl)amino]benzoyl]oxy]benzeneacetic acid 2-(dimethylamino)-2-oxoethyl ester] was run?
**A.** 7.6 (0.5)

**Q.** What about the “nose-family symptom score, Fitzmaurice model, Camostat” value (COVID-19 infection [1]; day 1) of the same molecule?
**A.** 6.6 (0.6)

**Q.** What about the “nose-family symptom score, Fitzmaurice model, Effect (placebo vs camostat)” value (COVID-19 infection [1]; day 1) of the same molecule?
**A.** 1.3 (0.7)

**Q.** And the “nose-family symptom score, Fitzmaurice model, Camostat” value (COVID-19 infection [1]; day 2)?
**A.** 6.6 (0.6)

**Q.** What about the “nose-family symptom score, Fitzmaurice model, Effect (placebo vs camostat)” value (COVID-19 infection [1]; day 2) of the same molecule?
**A.** 0 (0.7)

**Q.** What about the “nose-family symptom score, Fitzmaurice model, Camostat” value (COVID-19 infection [1]; day 3) of the same molecule?
**A.** 5.7 (0.6)

**Q.** And the “nose-family symptom score, Fitzmaurice model, Effect (placebo vs camostat)” value (COVID-19 infection [1]; day 3)?
**A.** 0.5 (0.7)

**Q.** And the “nose-family symptom score, Fitzmaurice model, Camostat” value (COVID-19 infection [1]; day 4)?
**A.** 5.6 (0.6)

**Q.** What about the “nose-family symptom score, Fitzmaurice model, Effect (placebo vs camostat)” value (COVID-19 infection [1]; day 4) of the same molecule?
**A.** 0 (0.7)

**Q.** And the “nose-family symptom score, Fitzmaurice model, Camostat” value (COVID-19 infection [1]; day 5)?
**A.** 5.3 (0.6)

**Q.** What about the “nose-family symptom score, Fitzmaurice model, Effect (placebo vs camostat)” value (COVID-19 infection [1]; day 5) of the same molecule?
**A.** 1 (0.7)

**Q.** And the “nose-family symptom score, Fitzmaurice model, Camostat” value (COVID-19 infection [1]; day 6)?
**A.** 3.9 (0.6)

**Q.** What about the “nose-family symptom score, Fitzmaurice model, Effect (placebo vs camostat)” value (COVID-19 infection [1]; day 6) of the same molecule?
**A.** 1.4 (0.7)

**Q.** And the “nose-family symptom score, Fitzmaurice model, Camostat” value (COVID-19 infection [1]; day 7)?
**A.** 3.6 (0.6)

**Q.** And the “nose-family symptom score, Fitzmaurice model, Effect (placebo vs camostat)” value (COVID-19 infection [1]; day 7)?
**A.** 1.2 (0.7)

**Q.** And the “nose-family symptom score, Fitzmaurice model, Camostat” value (COVID-19 infection [1]; day 8)?
**A.** 3.3 (0.6)

**Q.** And the “nose-family symptom score, Fitzmaurice model, Effect (placebo vs camostat)” value (COVID-19 infection [1]; day 8)?
**A.** 1.5 (0.7)

**Q.** And the “nose-family symptom score, Fitzmaurice model, Camostat” value (COVID-19 infection [1]; day 9)?
**A.** 2.9 (0.6)

**Q.** And the “nose-family symptom score, Fitzmaurice model, Effect (placebo vs camostat)” value (COVID-19 infection [1]; day 9)?
**A.** 1.3 (0.7)

**Q.** And the “nose-family symptom score, Fitzmaurice model, Camostat” value (COVID-19 infection [1]; day 10)?
**A.** 2.9 (0.6)

**Q.** And the “nose-family symptom score, Fitzmaurice model, Effect (placebo vs camostat)” value (COVID-19 infection [1]; day 10)?
**A.** 0.9 (0.7)

**Q.** And the “nose-family symptom score, Fitzmaurice model, Camostat” value (COVID-19 infection [1]; day 11)?
**A.** 3 (0.6)

**Q.** What about the “nose-family symptom score, Fitzmaurice model, Effect (placebo vs camostat)” value (COVID-19 infection [1]; day 11) of the same molecule?
**A.** 0.4 (0.7)

**Q.** What about the “nose-family symptom score, Fitzmaurice model, Camostat” value (COVID-19 infection [1]; day 12) of the same molecule?
**A.** 2.5 (0.6)

**Q.** And the “nose-family symptom score, Fitzmaurice model, Effect (placebo vs camostat)” value (COVID-19 infection [1]; day 12)?
**A.** 0.7 (0.7)

**Q.** And the “nose-family symptom score, Fitzmaurice model, Camostat” value (COVID-19 infection [1]; day 13)?
**A.** 2.7 (0.6)

**Q.** And the “nose-family symptom score, Fitzmaurice model, Effect (placebo vs camostat)” value (COVID-19 infection [1]; day 13)?
**A.** 0.1 (0.7)

**Q.** And the “nose-family symptom score, Fitzmaurice model, Camostat” value (COVID-19 infection [1]; day 14)?
**A.** 2.7 (0.6)

**Q.** And the “nose-family symptom score, Fitzmaurice model, Effect (placebo vs camostat)” value (COVID-19 infection [1]; day 14)?
**A.** 0.2 (0.8)

**Q.** What about the “eye-family symptom score, Fitzmaurice model, Camostat” value (COVID-19 infection [2]; day 0) of the same molecule?
**A.** 1.4 (0.2)

**Q.** What about the “eye-family symptom score, Fitzmaurice model, Camostat” value (COVID-19 infection [2]; day 1) of the same molecule?
**A.** 1.4 (0.2)

**Q.** What about the “eye-family symptom score, Fitzmaurice model, Effect (placebo vs camostat)” value (“eye-family symptom score … (placebo vs camostat)” below) (COVID-19 infection [2]; day 1) of the same molecule?
**A.** −0.3 (0.3)

**Q.** And the “eye-family symptom score, Fitzmaurice model, Camostat” value (COVID-19 infection [2]; day 2)?
**A.** 1.2 (0.2)

**Q.** What about the “eye-family symptom score … (placebo vs camostat)” value (COVID-19 infection [2]; day 2) of the same molecule?
**A.** −0.2 (0.3)

**Q.** And the “eye-family symptom score, Fitzmaurice model, Camostat” value (COVID-19 infection [2]; day 3)?
**A.** 0.9 (0.2)

**Q.** And the “eye-family symptom score … (placebo vs camostat)” value (COVID-19 infection [2]; day 3)?
**A.** −0.2 (0.3)

**Q.** And the “eye-family symptom score, Fitzmaurice model, Camostat” value (COVID-19 infection [2]; day 4)?
**A.** 0.5 (0.2)

**Q.** And the “eye-family symptom score … (placebo vs camostat)” value (COVID-19 infection [2]; day 4)?
**A.** 0.2 (0.3)

**Q.** What about the “eye-family symptom score, Fitzmaurice model, Camostat” value (COVID-19 infection [2]; day 5) of the same molecule?
**A.** 0.5 (0.2)

**Q.** And the “eye-family symptom score … (placebo vs camostat)” value (COVID-19 infection [2]; day 5)?
**A.** −0.2 (0.3)

**Q.** What about the “eye-family symptom score, Fitzmaurice model, Camostat” value (COVID-19 infection [2]; day 6) of the same molecule?
**A.** 0.2 (0.2)

**Q.** What about the “eye-family symptom score … (placebo vs camostat)” value (COVID-19 infection [2]; day 6) of the same molecule?
**A.** 0.3 (0.3)

**Q.** What about the “eye-family symptom score, Fitzmaurice model, Camostat” value (COVID-19 infection [2]; day 7) of the same molecule?
**A.** 0.2 (0.2)

**Q.** And the “eye-family symptom score … (placebo vs camostat)” value (COVID-19 infection [2]; day 7)?
**A.** 0.3 (0.3)

**Q.** What about the “eye-family symptom score, Fitzmaurice model, Camostat” value (COVID-19 infection [2]; day 8) of the same molecule?
**A.** 0.1 (0.2)

**Q.** What about the “eye-family symptom score … (placebo vs camostat)” value (COVID-19 infection [2]; day 8) of the same molecule?
**A.** 0.5 (0.3)

**Q.** And the “eye-family symptom score, Fitzmaurice model, Camostat” value (COVID-19 infection [2]; day 9)?
**A.** 0.2 (0.2)

**Q.** What about the “eye-family symptom score … (placebo vs camostat)” value (COVID-19 infection [2]; day 9) of the same molecule?
**A.** 0.4 (0.3)

**Q.** What about the “eye-family symptom score, Fitzmaurice model, Camostat” value (COVID-19 infection [2]; day 10) of the same molecule?
**A.** 0.2 (0.2)

**Q.** What about the “eye-family symptom score … (placebo vs camostat)” value (COVID-19 infection [2]; day 10) of the same molecule?
**A.** 0.3 (0.3)

**Q.** What about the “eye-family symptom score, Fitzmaurice model, Camostat” value (COVID-19 infection [2]; day 11) of the same molecule?
**A.** 0 (0.2)

**Q.** And the “eye-family symptom score … (placebo vs camostat)” value (COVID-19 infection [2]; day 11)?
**A.** 0.4 (0.3)

**Q.** And the “eye-family symptom score, Fitzmaurice model, Camostat” value (COVID-19 infection [2]; day 12)?
**A.** 0 (0.2)

**Q.** And the “eye-family symptom score … (placebo vs camostat)” value (COVID-19 infection [2]; day 12)?
**A.** 0.3 (0.3)

**Q.** And the “eye-family symptom score, Fitzmaurice model, Camostat” value (COVID-19 infection [2]; day 13)?
**A.** 0.1 (0.2)

**Q.** And the “eye-family symptom score … (placebo vs camostat)” value (COVID-19 infection [2]; day 13)?
**A.** 0.1 (0.3)

**Q.** What about the “eye-family symptom score, Fitzmaurice model, Camostat” value (COVID-19 infection [2]; day 14) of the same molecule?
**A.** 0.2 (0.2)

**Q.** And the “eye-family symptom score … (placebo vs camostat)” value (COVID-19 infection [2]; day 14)?
**A.** 0.1 (0.3)
